Experiment [1] relates to CLP-induced sepsis in C57BL/6 mice. Description: Survival study in CLP mice. The format is in vivo, mouse. Conditions: C11 10 mg/kg i.p. once after CLP (Figure 5 legend: 10 μg/kg), single s.c. imipenem 0.5 mg/kg; n = 21/group; CLP vehicle 28.6%; p < 0.05 vs. CLP vehicle, log-rank. An excerpt: (§1) Mice were anesthetized with 2% isoflurane in oxygen, and sepsis was induced via cecal ligation and puncture (CLP) ([26]). A 1-cm midline abdominal incision was made to expose the cecum, which was ligated 1-cm proximal to its end using a 4-0 silk suture. The cecum then was perforated with a single through-and-through puncture using a 22-gauge needle, positioned midway between the ligation and the tip of the cecum. A small amount of fecal material was gently extruded from the perforation sites to confirm the patency of the punctures, and the cecum was subsequently returned to the peritoneal cavity. Following abdominal closure, resuscitation was provided via subcutaneous (s.c.) injection of 500 µL normal saline. Postoperative analgesia was administered with a single dose of 0.1 mg/kg buprenorphine. […]
All statistical analyses were performed using Prism 10 (GraphPad Software, San Diego, CA). Data are expressed as the mean ± standard error of the mean (SEM), and p-values < 0.05 were considered statistically significant. […] For survival analysis, data were assessed using the Kaplan-Meier estimator and compared using the log-rank test.

For experiment [2] the test system is unchanged. The experiment can be described thus: Lung wet-to-dry weight ratio in CLP mice. Type of experiment: in vivo, mouse. The settings on record: C11 10 mg/kg i.p. once after CLP (Figure 5 legend: 10 μg/kg); 20 h; n = 5-7/group; vs. CLP vehicle.
Source text: as §1, with “buprenorphine. To evaluate the effects of the therapeutic peptide (named Compound 11 or C11) (synthesized by GenScript USA Inc., Piscataway, NJ) on sepsis, C57BL/6 mice were assigned to three experimental groups: the Sham group, the CLP group treated with vehicle, and the CLP group treated with C11 (10 mg/kg). C11 was dissolved in DMSO (10 mg/mL) and diluted with saline to a total volume of 500 µL.” for “buprenorphine.”
Lung wet and dry weights were measured as previously described ([30]). […] The wet-to-dry weight ratio was calculated as an indicator of pulmonary edema.

For 126-ELKNRTVSWFS-136 [Compound C11], in experiment [1], the survival is listed as 57.1%. Moreover, in experiment [2], the “sepsis-induced pulmonary edema (lung wet-to-dry ratio)” value is reported as “effectively reduced”.
